Experimental data as given in patent US20250195515A1, “COMPOSITION FOR TREATING THE EYE” (BITOP AG, priority 2014, published 2025).

Experiments:
[1] = tested on: patients suffering from a mild to moderate form of keratoconjunctivitis sicca; type: in vivo, human; details: for tolerability: human, in vivo
Protocol: In one study, 64 patients suffering from a mild to moderate form of keratoconjunctivitis sicca were examined. […] The majority (72%) of the patients were female. For at least one eye in each case, the tear break-up time (TBUT), i.e., the time until dry spots reappear on the cornea after blinking, was less than 10 sec. The TBUT was used as the main parameter for the treatment assessment. Over a period of 28 days, 34 patients were treated with an ectoine-containing composition and the other 30 patients with hyaluronic acid as reference. 59 of the patients finished the study as planned; 5 patients left prematurely. […] Especially the sensation of foreign bodies and the sensation of tired eyes were rated as improved following the treatment. 78.8% of the ectoine-treated patients and 71.4% of the hyaluronic acid-treated patients would continue use.

[2] = tested on: patients suffering from a mild to moderate form of keratoconjunctivitis sicca; experiment: Clinical study, OSDI (ocular surface disease index) quality of life; type: in vivo, human; details: within the 28-day observation period
Protocol: In one study, 64 patients suffering from a mild to moderate form of keratoconjunctivitis sicca were examined. […] The majority (72%) of the patients were female. For at least one eye in each case, the tear break-up time (TBUT), i.e., the time until dry spots reappear on the cornea after blinking, was less than 10 sec. The TBUT was used as the main parameter for the treatment assessment. Over a period of 28 days, 34 patients were treated with an ectoine-containing composition and the other 30 patients with hyaluronic acid as reference. 59 of the patients finished the study as planned; 5 patients left prematurely. The quality of life of the patients was determined on the basis of the OSDI (ocular surface disease index). The OSDI assessment consists of 12 questions answered by the patients on a scale of 0 to 4 (0=never; 4=always). The higher the OSDI value, the stronger the impairment of the daily life of the disease. Within the observation period, it was possible to observe a decrease of 17.7 points in the case of the ectoine-treated patients and of 17.2 points in the case of the hyaluronic acid-treated patients.

[3] = Compression of meibomian lipid monolayers on PBS subphase with different ectoine concentrations (surface pressure-area isotherms); type: physicochemical, human
Protocol: Meibomian lipids were obtained from the meibomian glands of four healthy volunteers. The lipids were dissolved in chloroform/methanol (1:1, v/v) and applied to an aqueous subphase (PBS, phosphate-buffered saline solution, pH 7.4, T=20° C.). After an equilibration time of 10-15 min, the monolayers were compressed at 2.9 cm^2/min. The subphase was provided with different ectoine concentrations. The result of the compression of the lipid film on a PBS subphase without ectoine is depicted in FIG. 2A. No phase transitions are observed up to a surface pressure of 20 mN/m. […] Ectoine therefore enlarges the spaces between the molecules.

[4] = Atomic force microscopy (AFM) topography of Langmuir-Blodgett-transferred meibomian lipid layers; type: physicochemical, human
Protocol: The topography of the surface of the lipid layers was examined with the aid of an atomic force microscope (atomic force microscopy, AFM). To this end, the lipid layer was transferred to a solid surface using the Langmuir-Blodgett technique; thereafter, the AFM measurements were carried out at pressures of 5 mN/m, 20 mN/m and 23.5 mN/m and 20° C. At a relatively low pressure of 5 mN/m, it was possible to observe small fibrous structures of up to approx. 5 nm in height distributed over the entire area. Layers of hydrophobic lipids such as cholesteryl esters and triglycerides might be involved here. At higher pressures of 20 mN/m, the number of fibrous structures increased.
In the presence of 100 mM ectoine, droplet-type structures of up to approx. 300 nm in height were observed. At higher ectoine concentrations, the diameter of the droplet-type structures increased.

[5] = tested on: patients suffering from a mild to moderate form of keratoconjunctivitis sicca; experiment: Clinical study, lacrimation according to Schirmer's test II; type: in vivo, human
Protocol: In one study, 64 patients suffering from a mild to moderate form of keratoconjunctivitis sicca were examined. […] The majority (72%) of the patients were female. For at least one eye in each case, the tear break-up time (TBUT), i.e., the time until dry spots reappear on the cornea after blinking, was less than 10 sec. The TBUT was used as the main parameter for the treatment assessment. Over a period of 28 days, 34 patients were treated with an ectoine-containing composition and the other 30 patients with hyaluronic acid as reference. 59 of the patients finished the study as planned; 5 patients left prematurely. Lacrimation was examined according to the Schirmer's test II. This was lower for the ectoine patients than for the hyaluronic acid patients both at the start (8.8 mm/5 min compared to 16.0 mm/5 min) and at the end (10.6 mm/5 min compared to 16.8 mm/5 min) of the treatment, it being possible to observe a more distinct improvement for the ectoine-treated patients than for the hyaluronic acid-treated patients (1.8 mm/5 min compared to 0.8 mm/5 min).

[6] = tested on: patients suffering from a mild to moderate form of keratoconjunctivitis sicca; experiment: Clinical study, tear break-up time (TBUT); type: in vivo, human
Protocol: In one study, 64 patients suffering from a mild to moderate form of keratoconjunctivitis sicca were examined. […] The majority (72%) of the patients were female. For at least one eye in each case, the tear break-up time (TBUT), i.e., the time until dry spots reappear on the cornea after blinking, was less than 10 sec. The TBUT was used as the main parameter for the treatment assessment. Over a period of 28 days, 34 patients were treated with an ectoine-containing composition and the other 30 patients with hyaluronic acid as reference. 59 of the patients finished the study as planned; 5 patients left prematurely. On average, the TBUT improved within the 28-day observation period by 2.6 sec (p=0.0011) for ectoine-treated patients and by 1.1 sec (p=0.1686) for the hyaluronic acid-treated patients.

hyaluronic acid [reference compound]
tolerability [1]: generally well tolerated

CC1=N[C@H](C(=O)O)CCN1 [ectoine, (S)-2-methyl-1,4,5,6-tetrahydropyrimidine-4-carboxylic acid]
decrease of OSDI [2]: 17.7 points
estimation of the effectiveness of the treatment according to patients' estimates ([1]; after 28-day treatment): 0.9 points
tolerability [1]: generally well tolerated
hysteresis of compression-expansion curves ([3]; ectoine in PBS subphase vs without ectoine): no significant differences
shift of the compression isotherm (area per molecule) ([3]; ectoine in PBS subphase, pH 7.4, 20° C., vs subphase without ectoine, effect is concentration-dependent): isotherm shifts in the direction of a larger area per molecule
formation of droplet-type structures ([4]; 50 mM ectoine, AFM): comparatively scattered and distinctly smaller
thickness of the lipid layer at the sites of the droplet-type clusters ([4]; 100 mM ectoine in the lacrimal fluid (model of FIG. 1B), approx. 20 nm in the absence of ectoine): approx. 200 nm
height of droplet-type structures ([4]; 100 mM ectoine, AFM, 20° C.): ≤ 300 nm
diameter of the droplet-type structures ([4]; ectoine concentrations higher than 100 mM, AFM): increased
lacrimation, Schirmer's test II, at the end of the treatment ([5]; end of the 28-day treatment): 10.6 mm/5 min
improvement of lacrimation, Schirmer's test II ([5]; end vs start of the 28-day treatment): 1.8 mm/5 min
lacrimation, Schirmer's test II, at the start of the treatment ([5]; start of the treatment (baseline)): 8.8 mm/5 min
improvement of TBUT in patients with severe keratoconjunctivitis sicca and TBUT<5 sec ([6]; 28 days, ectoine compared with hyaluronic acid): stronger improvement
improvement of TBUT on average ([6]; within the 28-day observation period): 2.6 s
